Experiments:
[1] = tested on: Intracellular ROS production; test: Real-time ROS production (DCF assay); type: cell-based; conditions: for effect on ROS levels: Trolox 200 μM, NAC 7.5 mM, GSH-E 10 mM
Protocol: Intracellular ROS production was detected using DCFH-DA probe (Sigma) (Zanotto-Filho et al., 2010, Cancer Lett 288, 192-203). This reagent enters the cells and reacts predominantly with highly oxidizing species of ROS, such as hydroxyl radicals, hydroperoxides, and peroxynitrite, thus producing the fluorophore DCF. Briefly, cells were seeded in black-edge clear bottom 96-well plates. After reaching 70% confluence, medium was changed and cells were incubated with 20 μM DCFH-DA dissolved in medium containing 0.5% FBS. After 1 h pre-incubation to allow DCFH-DA uptake, treatments were added to its respective final concentrations and DCF fluorescence was monitored at 0.5, 1, 3, 8, 12, 16 and 24 h in a fluorescence reader (Ex/Em=485/532 nm). Hydrogen peroxide was used as a positive control and N-acetylcysteine (NAC), GSH-ethyl-ester (GSH-E) and Trolox were used as antioxidant standards. As a control, at the end of 24 h, cell viability was assessed and compared to wells in the absence of DCFH-DA.

[2] = tested on: Kc167 cells, MEFs, and MDA-MB231 breast cancer cells; test: Cell viability (CellTiter-Glo); type: cell-based, D. melanogaster, mouse, human; conditions: for effect on MMS toxicity / effect on toxicity of 4-HC, TMZ and CDDP: pre-incubation; for effect on MMS toxicity: then MMS, all cell types tested, 48 h; for effect on toxicity of 4-HC, TMZ and CDDP: then alkylator
Protocol: The D. melanogaster embryonic cell line Kc167 was grown in Schneider medium (Invitrogen, Carlsbad, Calif.) supplemented with 10% heat-inactivated (56° C./30 min) fetal bovine serum (FBS), penicillin and streptomycin at 22° C. in a humidified incubator. Primary MEFs were obtained by harvesting 14.5-day C57BL/6J embryos as previously described (Ravi et al., 2009, PLoS Genet 5, e1000527). Briefly, fetal liver and head were removed and the remainder of the embryo was mechanically disaggregated in plating medium. A suspension of single-cells was plated in DMEM (plus 10% FBS, 100 U/mL penicillin and 100 μg/mL streptomycin). MEFs were grown for two passages before freezing aliquots. Aliquots were taken and expanded as needed for each experiment. MDA-MB231, SkBr3 and MCF-7 breast cancer cells lines were obtained from ATCC and grown in DMEM supplemented with 10% inactivated FBS plus antibiotics in a 37° C. humidified incubator at […] atmosphere. Cells were kept and treated in the exponential phase of growing (60-70% confluence). […] DMSO concentrations were kept to a maximum of 0.1% for all experiments. Cell viability was assessed using CellTiter-Glo Luminescent Viability assay (Promega) in 384 or 96-well plates white-border clear-bottom plated cells. For caspase-3/7 activity, Caspase-Glo 3/7 Assay kits were used (Promega). For caspase assays, the cells were seeded in 96-well plates and assayed directly after treatments. Caspase-3/7 inhibitor (Z-DEVD-fmk) was used to ensure assay specificity. LDH release into culture medium was quantified by Cytotox-96 Non-Radioactive assay kit in agreement with instructions (Promega).

[3] = tested on: protein sulfhydryl (protein-SH) groups; test: Protein sulfhydryl groups (dibromobimane assay); type: cell-based; conditions: BSO treatment plus MMS
Protocol: Protein reduced thiol groups (Protein-SH) were measured by dibromobimane assays with minor modifications (PMID:20463849). The 6-well plated cells (500,000 cells) were scraped in 0.6 mL PBS and 200 μL Perchloric acid (6 N) was added to precipitate proteins. The samples were incubated for 5 min in ice, centrifuged (14,000×g) Supernatants containing small peptides and glutathione were discarded and pellets were resuspended in 100 μL NaOH 0.1N, neutralized with 100 μL ice cold Perchloric acid (0.1 N), and 0.1 N PBS was added to keep pH constant. A stock solution of 4 mM dibromobimane in DMSO was added to a final concentration 40 μM, and incubated for 30 30 min at 37° C. Dibromobimane-protein fluorescence was measured at Ex=393 and, Em=477 nm.

[4] = tested on: Intracellular glutathione levels; test: Glutathione assay; type: cell-based; conditions: glutathione precursors
Protocol: Intracellular glutathione levels were measured using the Glutathione (GSH/GSSG/Total) Fluorometric Assay Kit (BioVision Incorporated, Calif.), following manufacturer protocol. Briefly, 1×10^6 cells were scraped in PBS and centrifuged. Pellets were resuspended in 100 μL Glutathione assay buffer. 60 μL of this homogenate was mixed with PCA (perchloric acid) and centrifuged. Supernatant containing small molecules including GSH were neutralized with KOH and 3 fractions were collected and separated to analyze reduced (GSH), oxidized (GSSG) and total glutathione forms (GSH+GSSG) by reaction with OPA probe (o-phthalaldehyde) in the presence or absence of GSH quencher or reducing agents depending on the compound to be determined. Fluorescence was monitored at Ex/Em=340/420 nm for 40 min. Glutathione forms were calculated and normalized by protein (Bradford's assay).

[5] = tested on: MAPKs (ERK1/2, JNK1/2 and p38) and ATF2; test: Western blot of MAPK phosphorylation; type: cell-based; conditions: MDA-MB231 cells, 8 h
Protocol: (§1) Western blot. Protein lysates were prepared using RIPA buffer containing 5% sodium deoxycholate, 0.1% SDS, 0.1% Igepal in PBS with a cocktail of protease and phosphatase inhibitors (1 mM PMSF, 1 mM sodium orthovanadate, 1 mM NaF, and 30 μL/mL aprotinin (Sigma-Aldrich, USA)) and clarified by centrifugation. Protein concentration was determined using Bradford Protein Assay Reagent (Biorad, Hercules, Calif.). Equal amounts of protein were resolved using 8-12% SDS polyacrylamide gel, transferred onto nitrocellulose membranes (Hybond-ECL, GE Healthcare Lifesciences, Piscataway, N.J.) and detected using Lumiglo system (Cell Signaling Technology, Calif.) and x-ray films. Primary antibodies included COX-2 (#4842), NRF2 (D1C9), p-JNK1/2 (Thr183/Tyr185, #4671), p-p38 (Thr180/Tyr182, #9216), p-ERK1/2 (Thr202/Tyr204, #9101), BiP/GRP78 (C50B12), IRE1a (14C10), CHOP (L63F7) and PERK (D11A8) from Cell Signaling Technology; p-IRE1a (Ser724; NB100-2323) from Novus Biologicals; GCLC (Ab41463), beta-actin (ab8227) and ATF6 (Ab37149) from Abcam; p-PERK (Thr 981, sc-32577) and ATF3 (C19) were purchased from Santa Cruz. All primary antibodies were used at 1:1000 dilutions and secondary antibodies were 1:3000 in TBS-T with 5% BSA.

[6] = tested on: NRF2, GCLC, ER stress markers; test: Western blot of NRF2, GCLC and ER stress markers; type: cell-based; conditions: CHX 1 μg/mL, Actinomycin D 5 μg/mL, NAC 7.5 mM
Protocol: as §1

[7] = tested on: NFκB-responsive firefly luciferase construct in MDA-MB231 cells; test: NFκB gene reporter assay; type: cell-based, human; conditions: MDA-MB231, pre-incubation with inhibitor
Protocol: (§2) Prior to transfection, cells were plated in 96-well plates to 80-90% confluence (100 μL antibiotic free-medium) after 24 h. When used, siRNA were incubated by reverse transfection during cells seeding. […] A mixture of non-inducible firefly luciferase construct and constitutively expressing Renilla luciferase construct (40:1) were used as negative controls. Approximately 24 h post-transfection, the medium was changed and the cells were treated for 12 h with alkylating agents (with/out 6 h pre-treatments). At the end of this period, medium was changed to drug-free fresh medium (to minimize the effect of alkylating toxicity on promoters activity) and cells were kept for an additional 12 h.

[8] = tested on: AP1-responsive firefly luciferase construct in MDA-MB231 cells; test: AP-1 gene reporter assay; type: cell-based, human; conditions: MDA-MB231, pre-incubation with inhibitor
Protocol: as §2

[9] = tested on: MDA-MB231
[10] = tested on: MDA-MB231 cells; test: Extracellular matrix invasion assay (Boyden chamber); type: cell-based, human; conditions: direct incubation
Protocol: (§3) Quantification of MMP1 and MMP3 content in culture medium was assessed using RayBio-MMP3 and RayBio-MMP1 Elisa Kit (RayBiotech, Inc); IL8 was analyzed by Human IL-8 Elisa kit (Pierce Biotechnology). The levels of prostaglandin E2 (PGE2) were determined using the Prostaglandin E2 EIA Kit Monoclonal (Cayman Chemical Company). Culture media were diluted to fit within the standard curves. For conditioned media (CM) preparation for invasion and in vitro angiogenesis experiments, 12-well plated cells were treated with MMS (or MMS plus inhibitors) for 8 h in the presence of 10% FBS, twice washed with HBSS, and incubated with 700 μL drug/serum-free fresh medium for additional 12 h. Thereafter, the conditioned fresh medium was collected and directly used for migration and invasion experiments in order to reduce freezing associated loss of activity.
The invasion potential of breast cancer cells was estimated using the QCM™ 24-Well Cell Invasion Assay Fluorimetric (Millipore). Serum starved cells were trypsinized, trypsin-inhibited, centrifuged, resuspended to 5000 cells/μL, and 50 μL of this suspension (250,000 cells) was seeded on 8 μm pore size inserts coated with extracellular matrix in serum-free conditions. Afterwards, 200 μL conditioned (CM) or fresh medium without serum was added to top chambers. The bottom chamber consisted of 500 μL of DMEM supplemented with 10% FBS as chemoattractant. Cells were allowed to migrate for 24 h at 37° C. under 5% CO2. Invaded cells were detached from the bottom side of the insert, lysed and incubated with CyQuant GR fluorescent Dye for 15 min. Fluorescence was read at Ex/Em=480/520 nm. Percentage of invading cells was compared to cell number standard curves.

[11] = tested on: human endothelial cells; test: In vitro angiogenesis (Angiophase kit, CD31); type: cell-based; conditions: direct incubation
Protocol: as §3
The Angiophase kit (MBL Inc.) was used to assess the angiogenic potential of conditioned media (CM) from breast cancer cells or the direct effect of pharmaceutical inhibitors (free-drug system) on vessel-like structures formation in vitro. With this kit, human endothelial cells are co-cultured in a specially designed medium to form threadlike tubule structures. These gradually join up to form a network of anastomosing tubules, which resemble the capillary bed found in the CAM assay. Kit-provided cryopreserved co-culture of human endothelial cells were plated and kept for 96 h (proliferative phase) without treatments. Afterwards, the cells were maintained in the presence of conditioned medium from alkylating agent treated cells or control medium for a total of 14 days (angiogenic/vasculogenic phase). Medium was changed each 2 days. At the end of treatments, the cells were fixed and immune-stained for CD31 (PECAM-1), following by incubation with secondary antibody conjugate. ELISA was developed using the soluble substrate p-nitrophenyl-phosphate (p-NPP) whose product was colorimetrically read at 405 nm. After ELISA assays, the wells were washed with dH2O and tubule staining was performed by incubating CD31-stained tubules with the substrate BCIP/NBT, which form insoluble precipitates. Tubules were counted and photographed for qualitative monitoring.

For CCCCS(=N)(=O)CCC(N)C(=O)O (centres unmarked) [BSO, buthionine sulfoximine], the “ROS production, agent alone” value ([1]; BSO 2.5 mM, CDDP 75 μM, TMZ 1.5 mM, 4HC 75 μM, 12 h) was “increased ROS to levels higher than the dose of MMS used”, the “effect on MMS-induced ROS” value ([1]; BSO plus MMS) was 2 fold and the “viability, agent alone” value ([2]; 2.5 mM, up to 48 h) was “without effect on viability”. The “effect on MMS toxicity” value [2] was “substantial necrotic cell death”, the “effect on toxicity of 4-HC, TMZ and CDDP” value [2] was “potentiated” and the “effect on depletion of protein-SH residues by MMS” value [3] was “potentiated the depletion of protein-SH residues by MMS”.
In the case of CCOC(=O)CNC(=O)[C@H](CS)NC(=O)CC[C@H](N)C(=O)O [GSH-E, glutathione ethyl-ester], the “effect on ROS levels” value [1] is reported as “reduced ROS below levels of the control”, the “effect on MMS toxicity” value [2] is reported as “protective against MMS toxicity” and the “effect on toxicity of 4-HC, TMZ and CDDP” value [2] is reported as “attenuated”. The “effect on GSH levels” value [4] was “effectively increased the GSH levels”.
With CC(=O)N[C@@H](CS)C(=O)O [NAC, N-Acetyl-Cysteine] the “effect on ROS levels” value [1] was “reduced ROS below levels of the control”, the “effect on BSO+MMS toxicity” value ([2]; NAC pretreatment) was “rescued the deleterious effects of BSO+MMS combination” and the “effect on MMS toxicity” value [2] was “protective against MMS toxicity”. The “effect on toxicity of 4-HC, TMZ and CDDP” value [2] was “attenuated”, the “effect on GSH levels” value [4] was “effectively increased the GSH levels” and the “effect on MMS-induced MAPK phosphorylation” value [5] was “inhibited”. For the same compound, the “effect on MMS-induced NRF2 activation” value [6] was “block both NRF2 activation and ER stress caused by MMS”.
In the case of N#CC(=C(/N)Sc1ccccc1N)/C(C#N)=C(/N)Sc1ccccc1N [UO126], the “effect on MMS-induced activation of NFκB reporter” value [7] is reported as “blocked”, the “effect on MMS-induced activation of AP-1 reporter” value [8] is reported as “blocked” and the “decrease in cell numbers (anti-proliferative, not cytotoxic)” value [9] is reported as 30%.
With IL8: purified IL8 the “trans-well invasion, purified factor” value [10] was “stimulated trans-well invasion” and the “vessel-like structure formation, purified factor” value [11] was “angiogenic”.
In the case of MMP1: purified MMP1, the “trans-well invasion, purified factor” value [10] is reported as “stimulated trans-well invasion”.
